From article PMC9050769 (European Journal of Drug Metabolism and Pharmacokinetics, 2022)
Where two headings read alike, the source gives them in different places.

Experiments:
[1] = more potent than tramadol; cited from earlier work
mu (µ) opioid receptor = settings: higher than that of tramadol; cited from earlier work
[2] = Observed tramadol and ODT blood concentrations; assay type: in vivo, human
[3] = cited from earlier work
[4] = before inclusion of CrCL covariate (base model)
[5] = final model (with CrCL covariate)

CN(C)C[C@H]1CCCC[C@]1(O)c1cccc(O)c1 [O-desmethyltramadol]
BSV in CLm (final model): 21.6%
CLm/F, clearance of O-desmethyltramadol (final model): 0.143 L/h
potency relative to tramadol [1]: 100 times
binding affinity to the mu (µ) opioid receptor relative to tramadol (mu (µ) opioid receptor): 300 fold
ODT concentration ([2]; patients received 100 mg of tramadol): around 100 µg/l
ODT/tramadol concentration ratio at steady state, range ([2]; trough samples, n = 17): 0.08–0.82

CNC(C)C1CCC(N)C(OC2C(N)CC(N)C(OC3OCC(C)(O)C(NC)C3O)C2O)O1 (stereo not drawn) [gentamicin]
clearance in frail older patients compared to fit older patients [3]: reduced

COc1cccc(C2(O)CCCCC2CN(C)C)c1 (stereo not drawn) [tramadol]
BSV in CL/F [4]: 78.9%
BSV in V2/F [4]: 148%
BSV in Q (before inclusion of ISAR covariate (base model)): 4.71%
BSV in V1/F (final model): 73.8%
BSV in kt (final model): 78.5%
Q, inter-compartmental clearance (final model): 0.0426 L/h
V2/F, apparent volume of distribution in peripheral compartment (final model): 0.379 L
between-subject variability (BSV) in absorption rate constant (final model): 37.8%
BSV in CL/F [5]: 6.61%
BSV in V2/F [5]: 97.4%
BSV in Q (final model (with ISAR covariate)): 2.19%
